Measured values reported in patent US11559504B2, “Ceramide nanoliposomes, compositions and methods of using for immunotherapy” (THE PENN STATE RESEARCH FOUNDATION, priority 2017, dated 2023).

Experiments:
[1] = test system: G-BMMs and M-BMMs; experiment: ROS in bone marrow-derived macrophages in vitro, ROS-Glo H2O2 luminescent assay; assay type: cell-based, C57BL/6 mice; conditions: ceramides of carbon-chain lengths 6 to 22, overnight incubation
Procedure: Size-matched TBMs were randomly assigned to one of three groups: vehicle, LipC6, or no injection. Two weeks after injection, splenic leukocytes and TILs were prepared from the spleen and the perfused tumors. The cells were incubated for 45 mins at 37° C., then washed three times with media, with the remaining adherent cells being >90% CD11b positive (macrophages). Intracellular ROS were measured with Glo™ H2O2 assay. Briefly, H2O2 substrate was added to each well followed by addition of ROS-Glo™ detection solution. After incubation for 20 minutes at RT, relative luminescence was measured to assess ROS level in TAMs (A) and splenic macrophages (B). Similarly, bone marrow-derived macrophages (BMMs) were prepared in vitro by stimulating bone marrow cells from wild type C57BL/6 mice with GMCSF (G-BMMs) and MCSF (M-BMMs) for 6 days.
G-BMMs (A) and M-BMMs (B) were prepared in vitro by stimulating bone marrow cells from wild type C57BL/6 mice with GMCSF and MCSF for 6 days. After incubation with the ceramides of different carbon-chain lengths varying from 6 to 22 overnight, the relative ROS level in G-BMMs (C) and M-BMMs (D) was measured with a luminescence assay in accordance with the manufacturer's instruction. n=3; error bars represent±SD. * p<0.05.
Mice. […] Small tumors can be detected by MRI two months after hepatocyte inoculation. […]

[2] = test system: GM-BMMs; experiment: M1 cytokine mRNA in GM-BMMs with LipC6, NAC or both, RT-PCR; assay type: cell-based, C57BL/6 mice; conditions: 50 μM NAC, 24 hours
Procedure: GM-BMMs were prepared in vitro by stimulating bone marrow derived monocytes from wild type C57BL/6 mice with 50 ng/mL GMCSF for 6 days. GM-BMMs were incubated for 24 hours with 25 μM vehicle, 25 μM LipC6, 50 μM NAC or LipC6 plus NAC. Total RNA was extracted and subjected to RT-PCR to quantitate M1 cytokines including iNOS (B), IL-12 (C), IFN-γ (D) and TNF-α (E). n=3, *=p<0.05 and **=p<0.001 using Student's t-test.
Total RNA extraction and real-time PCR. Total RNAs were extracted using Trizol reagent (Invitrogen, Carlsbad, Calif.) according to the manufacturer's instructions. 2 μg of total RNAs were used for cDNA synthesis with High Capacity cDNA Reverse Transcription Kits (Applied Biosystems, CA). Each PCR was performed in a 20 μl reaction mixture containing SYBR Green I (Roche, Basel, Switzerland). Real-time PCR was performed with CFX96 Real-Time PCR Detection System (Bio-Rad, CA). Reactions were run in triplicate in three independent experiments. Expression data were normalized to the geometric mean of housekeeping gene 18S rRNA to control the variability in expression levels and were analyzed using the 2^ΔΔCT method.
To further study if ROS signaling is required for LipC6-mediated modulation of macrophages, we compared the function of LipC6 and the ROS specific inhibitor N-acetyl-L-cysteine (NAC) in modulating M1 cytokine production in GMCSF-induced macrophages.

Row | SMILES | suppressive effect on ROS production in BMMs [1] | M1 cytokine production profile compared with LipC6 [2]
1 | CCCCCCCCCCCCC/C=C/[C@@H](O)[C@H](CO)NC(=O)CCCCC [C6-ceramide, N-hexanoyl-D-erythro-sphinogosine] | suppressive effect | 
2 | CCCCCCCCCCCCC/C=C/[C@@H](O)[C@H](CO)NC(=O)CCCCCCC [C8-ceramide] | suppressive effect | 
3 | CC(=O)N[C@@H](CS)C(=O)O [NAC, N-acetyl-L-cysteine] |  | similar
